# Experimental data taken from patent US7270824B2, “Citrullinylarginine dipeptide analogs and their dermatological uses as care and treatment agents” (Exsymol S.A.M., priority 2002, dated 2007).
# Non-standard residues stand in square brackets, D forms with d. Residues, ends and D or L forms follow the SMILES beside them. Cit = NC(=O)NCCC[C@H](N)C(=O)O
# What was measured:
# [1] = system: human fibroblast cell line; test: Test 2: cell proliferation (cytostimulation), neutral red colorimetric test; format: cell-based; settings: human fibroblasts, 2% fetal calf serum, OD 540 nm
# Protocol: Test 2: evidence of the cytostimulating properties of the citrullinylarginine natural dipeptide analogs.
# The test was performed on a human fibroblast cell line maintained in a culture medium filed with 2% fetal calf serum.
# The assessment of the cell proliferation is carried out through a neutral red colorimetric test (Borenfreund E. and al. (1984), Toxicol. Lett., vol.24, pp.119). Cell growth variation is then obtained by measuring optical density (OD) at 540 nm, following the specific equation: […]
# cultured fibroblasts = test: Test 1: ATP dosage, energetic metabolism of cultured fibroblasts; format: cell-based; settings: 1% active ingredient; fibroblasts 10^5 cells/ml, 2% fetal calf serum; control 26.7 +/- 5.2
# Protocol: Test 1: influence of analogs of the citrullinylarginine natural dipeptide on the energetic metabolism of cultured fibroblasts through a triphosphate adenosine (ATP) dosage. Comparison with the purified natural dipeptide.
# The fibroblasts cells are cultivated and seeded at a rate of 10^5 cells/ml in the presence of a growth factor-deprived medium (2% fetal calf serum).
# On each cell suspension, the ATP quantity is measured by photometry, by establishing the decrease of absorbance at 340 nm according to following specific equations: • ATP+3-phosphoglycérate---->ADP+1,3-diphosphoglycérate • 1,3-diphosphoglycérate+NADH---->glycéraldéhyde-3-P+NAD+P
SMILES,% stimulation ([1]; 0.016% active) [%],% stimulation ([1]; 0.031% active) [%],% stimulation ([1]; 0.063% active) [%],% stimulation ([1]; 0.125% active) [%],% stimulation ([1]; 0.5% active) [%],ATP quantity (cultured fibroblasts)
"CC(=O)N[C@@H](CCCNC(N)=O)C(=O)N[C@@H](CCCNC(=N)N)C(=O)O [NAc-Cit-Arg, N-acetyl-L-citrullinyl-L-arginine] (Ac-[Cit]-Arg-OH)",5,26,34,40,45,90.7 +/− 6.5 nM/mg proteins
"N=C(N)NCCC[C@H](NC(=O)[C@@H](N)CCCNC(N)=O)C(=O)O [purified Cit-Arg, citrullinylarginine] (H-[Cit]-Arg-OH)",2,25,30,32.5,36,88.62 +/− 8 nM/mg proteins
